Converted amounts (≈) assume the structure as drawn. Where two headings read alike, the source gives them in different places.
Experiments:
[1] = target: T1, human GPBAR1 (Homo sapiens, UniProt Q8TDU6); test: GPBAR1 CRE-luciferase reporter transactivation assay in HEK-293T cells; assay type: cell-based; settings: HEK-293T; compound 10 µM relative to TLCA (10 μM) as 100, CRE transactivation, HEK293T cells; read-out: GPBAR1 Eff (%) maximum efficacy
T1 construct: expressed in transfected cells; host or cells: HEK-293T cells, transient transfection (Fugene HD)
T1 sequence (Q8TDU6 1-330): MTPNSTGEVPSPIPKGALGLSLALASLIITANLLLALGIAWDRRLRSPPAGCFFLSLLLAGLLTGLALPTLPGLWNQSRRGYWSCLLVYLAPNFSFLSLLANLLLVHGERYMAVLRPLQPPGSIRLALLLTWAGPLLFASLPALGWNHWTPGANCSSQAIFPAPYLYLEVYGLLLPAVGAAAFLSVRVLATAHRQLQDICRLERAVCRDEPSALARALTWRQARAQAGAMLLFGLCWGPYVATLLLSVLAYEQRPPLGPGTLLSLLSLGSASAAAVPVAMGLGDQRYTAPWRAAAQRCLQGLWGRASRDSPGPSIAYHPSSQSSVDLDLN
Protocol: GPBAR1. […] At 18 h post stimulations, cellular lysates were assayed for luciferase and Renilla activities using the Dual-Luciferase Reporter assay system (E1980, Promega Madison WI). Luminescence was measured using Glomax 20/20 luminometer (Promega, Madison WI). Luciferase activities were normalized with Renilla activities.
Agonistic activities of compounds on GPBAR1 were compared to TLCA, which was set as 100%.

[2] = target: T2, Human CysLT1 (LTD4) (Homo sapiens, UniProt Q9Y271); test: Human CysLT1 (LTD4) antagonist effect cellular functional assay (Ca2+ fluorescence, Eurofins Cerep-Panlabs); assay type: cell-based; settings: for IC50: 0.1 nM LTD4
T2 construct: Eurofins Cerep-Panlabs (France), contract assay
T2 sequence (Q9Y271 1-337): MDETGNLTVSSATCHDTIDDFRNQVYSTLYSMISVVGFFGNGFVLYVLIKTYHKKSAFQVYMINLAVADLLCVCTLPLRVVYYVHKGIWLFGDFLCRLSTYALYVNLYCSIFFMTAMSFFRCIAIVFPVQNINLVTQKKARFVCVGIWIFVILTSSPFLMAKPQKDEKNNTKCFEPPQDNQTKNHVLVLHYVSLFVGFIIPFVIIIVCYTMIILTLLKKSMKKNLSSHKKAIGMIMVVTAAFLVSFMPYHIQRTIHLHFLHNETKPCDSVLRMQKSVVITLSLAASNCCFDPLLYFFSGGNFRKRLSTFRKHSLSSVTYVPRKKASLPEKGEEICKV
Protocol: Human CysLT1 (LTD4) (h) (antagonist effect) Cellular Functional Assay. These assays were performed at Eurofins Cerep-Panlabs (France). The cells were suspended in DMEM buffer (Invitrogen) and then distributed in microplates at a density of 3.104 cells/well. […] Thereafter, the assay plates are positioned in a microplate reader (CellLux, PerkinElmer), which was used for the addition of the test compound or HBSS buffer, then 5 min later, 0.1 nM LTD4 or HBSS buffer (basal control), and measured the changes in fluorescence intensity, which varies proportionally to the free cytosolic Ca^2+-ion concentration.

[3] = parameters: method as in Fiorillo et al., 2021; settings: pH 7.4; ref Fiorillo et al., 2021; cited from earlier work
[4] = parameters: method as in Fiorillo et al., 2021; settings: ref Fiorillo et al., 2021; cited from earlier work
[5] = parameters: method as in Fiorillo et al., 2021; settings: aqueous, pH 7.4; ref Fiorillo et al., 2021; cited from earlier work
[6] = parameters: method as in Fiorillo et al., 2021; settings: ref Fiorillo et al., 2021; cited from earlier work; remark: listed apart in the source
[7] = antagonist effect, read-out: CysLT1R IC50

Structure (SMILES)	Emax [1]	CysLT1R efficacy (percent inhibition of the control response to 0.1 nM LTD4) ([2]; antagonist effect)	IC50 [2, 7]	also measured
OCCCCOc1cccc(OCc2ccc3ccccc3n2)c1 [Compound 12, 4-(3-(quinolin-2-ylmethoxy)phenoxy)-butan-1-ol]	12.8 ± 3.3%	108.6 ± 1.8%	310 ± 240 nM	–
COC(=O)CCCCOc1cccc(OCc2ccc3ccccc3n2)c1 [Compound 7]	20.5 ± 2.4%	76 ± 9.6%	1680 ± 280 nM	–
O=C(O)CCCOc1cccc(OCc2ccc3ccccc3n2)c1 [Compound 11, 4-(3-(quinolin-2-ylmethoxy)phenoxy)-butanoic acid]	18.3 ± 4.8%	92.8 ± 2.3%	–	–
OCCCCCOc1cccc(OCc2ccc3ccccc3n2)c1 [Compound 9, 5-(3-(quinolin-2-ylmethoxy)phenoxy)-pentan-1-ol]	30.8 ± 7.5%	106.9 ± 1.6%	360 ± 580 nM	–
COC(=O)c1cccc(-c2ccc(OCc3ccc4ccccc4n3)cc2)c1 [Compound 1, Methyl 4'-(quinolin-2-ylmethoxy)-[1,1′-biphenyl]-3-carboxylate]	56.9 ± 7.8%	–	–	–
OCc1ccc(-c2ccc(OCc3ccc4ccccc4n3)cc2)cc1 [Compound 6, (4'-(quinolin-2-ylmethoxy)-[1,1′-biphenyl]-4-yl)-methanol]	64.9 ± 13%	0.8 ± 1.5%	–	–
CCCCCC(O)c1cccc(OCc2ccc3ccccc3n2)c1 (stereo not drawn) [REV5901, alpha-pentyl-3-[2-quinolinylmethoxy] benzyl alcohol]	–	–	–	LogD [3]: 3.1; Microsomes Clint [4]: 63 μl/min/mg protein; Microsomes t1/2 [4]: 37 min; IC50 ([2]; CysLT1R IC50, antagonist effect): 2500 ± 1200 nM; Solubility [5]: 39.3 µM (≈ 13.2 µg/mL); S9 fraction Clint [6]: 40 μl/min/mg protein; S9 fraction t1/2 [6]: 57 min
COC(=O)CCCOc1cccc(OCc2ccc3ccccc3n2)c1 [Compound 10, Methyl 4-(3-(quinolin-2-ylmethoxy)phenoxy)-butanoate]	20.2 ± 4.5%	92.1 ± 3.4%	1550 ± 430 nM	–
OCc1cccc(-c2ccc(OCc3ccc4ccccc4n3)cc2)c1 [Compound 3, (4'-(quinolin-2-ylmethoxy)-[1,1′-biphenyl]-3-yl)-methanol]	2.1 ± 0.06%	59 ± 3.6%	–	–
O=C(O)CCCCOc1cccc(OCc2ccc3ccccc3n2)c1 [Compound 8]	12 ± 1.3%	99.6 ± 2.0%	900 ± 500 nM	–
COC(=O)c1ccc(-c2ccc(OCc3ccc4ccccc4n3)cc2)cc1 [Compound 4, Methyl 4'-(quinolin-2-ylmethoxy)-[1,1′-biphenyl]-4-carboxylate]	13.5 ± 1%	–	–	–
O=C(O)c1ccc(-c2ccc(OCc3ccc4ccccc4n3)cc2)cc1 [Compound 5, 4'-(quinolin-2-ylmethoxy)-[1,1′-biphenyl]-4-carboxylic acid]	36.7 ± 3%	–	–	–

Reference: publication PMC9085577, “Discovery of a Potent and Orally Active Dual GPBAR1/CysLT1R Modulator for the Treatment of Metabolic Fatty Liver Disease” (Frontiers in Pharmacology, 2022)
